Data set [1] addresses T1, NAD-dependent protein lipoamidase sirtuin-4, mitochondrial (Homo sapiens, UniProt Q9Y6E7).
T1 sequence (Q9Y6E7 whole entry): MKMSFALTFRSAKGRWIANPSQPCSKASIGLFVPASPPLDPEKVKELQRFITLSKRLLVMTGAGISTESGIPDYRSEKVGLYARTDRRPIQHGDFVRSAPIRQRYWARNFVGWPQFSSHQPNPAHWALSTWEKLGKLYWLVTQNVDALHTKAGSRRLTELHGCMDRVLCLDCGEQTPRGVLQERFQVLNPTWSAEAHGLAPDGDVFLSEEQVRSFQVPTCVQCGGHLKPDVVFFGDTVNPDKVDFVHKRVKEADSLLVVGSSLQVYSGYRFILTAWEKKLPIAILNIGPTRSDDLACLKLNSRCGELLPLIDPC
The experiment in a line: Inhibition of N-terminal 6His-tagged human Sirt4 (25 to 314 residues) expressed in Escherichia coli CodonPlus(DE3) cells using HMG-FdL as substrate at 100 uM preincubated for 20 mins followed by NAM addition and measured after 45 mins in presence of NAD+ by fluorescence based assay relative to control.

The next data set concerns C2C12. The experiment in a line: Cytotoxicity against mouse C2C12 cells assessed as effect o cell viability at 1 to 100 uM incubated for 4 hrs by trypan blue reagent based phase contrast microscopic analysis. The class given is toxicity. The following applies: c2c12, 4 h, dose 1-100 µM.

Each structure is given as a SMILES string.

Turning to `NC(=O)C1=CN([C@@H]2O[C@H](COP(=O)(O)OP(=O)(O)OC[C@H]3O[C@@H](n4cnc5c(N)ncnc54)[C@H](O)[C@@H]3O)[C@@H](O)[C@H]2O)C=CC1`, in data set [1], the 50% inhibitory concentration (IC50) was roughly 126 µM. For the molecule `CCCc1cc(=O)[nH]c(SCC(=O)Nc2ccc(S(=O)(=O)c3ccc([N+](=O)[O-])cc3)cc2)n1`, the Activity entry in the data set with C2C12 was “Non-Toxic”.

One may read the IC50 as the concentration at which inhibition is half-maximal.
